Data on ten compounds can be found in paper PMC10872402, “HTS discovery of PARP1-HPF1 complex inhibitors in cancer” (SLAS discovery : advancing life sciences R & D, 2023).

In one data set the test system is SUM149PT tumor organoids. Nature of the data set: Tumor organoid cytotoxicity, CellTiter-Glo 3D. It is filed as cell-based. The following applies: Homo sapiens, 96 h, read-out: IC50 tumor organoid viability. As to the method:
SUM149PT cells were plated at 2000 cells/well into 96-well Clear Round Bottom Ultra-Low Attachment plates (Cat. No. 7007, Corning, Corning, NY) in complete growth medium. Cell assay plates were centrifuged at 1000 RPM for 15 min to promote cellular aggregation, then 25 μL of cold Growth-Factor Reduced (GFR) Matrigel (10 %) was added per well for a final concentration of 2 %. […] Briefly, tumor organoids were transferred to 96-well CELLSTAR white solid bottom plates (Cat. No. 655083, Greiner Bio-One, Monroe, NC), 40 μL (1:1) of CellTiter-Glo 3D was added to each well and plates were then placed on an orbital shaker at 450 RPM for 45 min at room temperature. CellTiter-Glo 3D’s luminescence signal was assessed using the Envision microplate reader (Revvity, Waltham, MA) with a measurement time of 100 ms. The experiment was done with triplicate organoids per condition, and IC50.values were calculated as described above.

The next data set concerns cancer cells. Also noted: method as in PMID 35259019. The following applies: read-out: IC50 cytotoxic activity; cited from earlier work.
Data set [1] concerns the target T1, PARP1–HPF1 complex (Homo sapiens, UniProt P09874+Q9NWY4).
T1 construct: made in house
Put plainly: FP assay of PARP1–HPF1–DNA complex, dose response of hits from the 10,000 compound pilot HTS. Format: biochemical. The following applies: dose response of HTS hits in duplicate; 10 nM PARP1, 100 nM HPF1, 15 min. As to the method: A Revvity G3 Explorer collaborative robot equipped with a freezer containing the drug library, a Revvity Janus liquid handler, and a Revvity Envision was used to carry out the screen. A ChemBridge diversity library containing 10,000 compounds was used for screening. Two identical daughter plates (2 mM) were generated, one for HTS and one for cherry-picking hits identified from HTS. The drug library was maintained in a LiCONiC STX500-DF Deep Freezer at −20 °C with 80 % N2. Binding buffer (13 μL) with 0.04 % DMSO was added to columns 23 and 24 of 32 384-well plates (Corning 3575). Next, 24.5 μL binding buffer was added to all wells on the plates. Then, 0.5 μL of 2 mM stock solutions for each of the 10,000 compounds was added to separate wells, giving a final concentration of 20 μM, excluding columns 1, 2, 23, and 24. Afterwards, 12.5 μL premix (PARP1 – HPF1 – DNA, at 10 nM PARP1, 100 nM HPF1, and 5 nM FITC-labeled p18mer DNA) was added to all wells. Next, 12.5 μL of 2 mM NAD^+ was added to each well.
Dose response curves for the hits were performed using the same Revvity robot system as for the initial screen. Binding buffer (13 μL) with 0.04 % DMSO was added to columns 23 and 24 of 32 different Corning (Cat. No. 3575) plates. Next, 25 μL binding buffer was added to all wells on the plates. Cherry-picked compound plates generated from the compound source used in the initial HTS were used to add 1 compound per column from 20 to 160 nM in duplicate with 2x serial dilution using a Revvity FlexDrop iQ instrument. A 12.5 μL premix (PARP1 – HPF1 – DNA, as above) was added to all wells. Afterwards, 12.5 μL of 2 mM NAD^+ was added to each well and plates were incubated for 15 min at RT. The FP signal was read as above, and data for screened compounds was normalized between 100 % (positive control, […]) and 0 % (negative control, rows 1 and 2). Dose response curves were plotted and fit using GraphPad Prism with a non-linear regression analysis as described above.

The test system of data set [2] is PAR in the nucleus of SUM149PT cells. Nature of the data set: PAR immunofluorescence in SUM149PT cells with MMS. Particulars: 10 and 12.5 μM, 5 h, 0.01 % MMS; for amount of PAR in the nucleus: p<0.05 for 145 and 88, p<0.001 for 4. It is filed as cell-based. As to the method:
18,000 SUM149PT cells were seeded into a 96 well PhenoPlate (Revvity) and allowed to adhere overnight. Cells were then treated with the selected hits at a concentration of 10 or 12.5 μM and 0.01 % final concentration of MMS for 5 h. The medium was then aspirated, and cells were fixed with 4 % paraformaldehyde for 15 min at room temperature (RT). After washing twice with PBS, cells were incubated with 0.3 % Triton X-100 for 15 min followed by another washing step. To decrease unspecific binding of the antibodies, cells were blocked in 5 % milk for 30 min at RT. Afterwards, cells were incubated with the anti-PAR primary antibody at a 1:1000 dilution for 2 h at RT. Cells were washed again and incubated with a goat anti-mouse AlexaFluor 647 secondary antibody at a 1:500 dilution for […] at RT. Finally, cells were washed, stained with Hoechst 33342 (1:1000), and imaged using a 40x water objective on the Phenix Plus High-Content Screening (HCS) System (Revvity). Each bar graph is representative of two experiments, each with three replicates of whole-well analysis per condition. The reported data represents the average of each cell within the replicates, plotted with standard deviation error bars.

Data set [3] concerns the target T1, PARP1–HPF1 complex. Nature of the data set: FP assay of PARP1–HPF1–DNA complex, PARP-directed library screen. Format: biochemical. Here is the method:
An Opentrons OT-2 robot was used for all the pipetting steps as described. First, 20 μL of binding buffer was placed into each well of the 384-well assay plate. Next, 10 μL of the pre-formed complex of PARP1 - HPF1 - DNA or PARP2 – HPF1 – DNA (prepared in binding buffer) was added to all wells. Next, 1 μL of the inhibitors from the 12-point dilution were added to the 384-well plate and was incubated with the protein - DNA for 30 min at room temperature (RT). The plate was then transferred to BMG Labtech CLARIOstar plate reader equipped with a syringe injector. The injector was used to add 10 μL of NAD^+ into all wells except for eight control wells. […] Final concentrations were 5 nM p18mer (fluorescein-labeled), 10 nM PARP1/2, 200 nM HPF1, 200 μM NAD^+, and 0.09 μM – 200 μM inhibitor. IC50 values were calculated using a nonlinear regression analysis (sigmoidal dose-response fitting with variable slope) with the following equation: Y = Bottom + (Top – Bottom)/(1 + 10(LOGIC50 – X) · HILL SLOPE) using GraphPad Prism.
We base our assay method on our previously described fluorescence polarization (FP) assay for measuring the activity of PARP1 [15]. […] (Fig. 2A). For the inhibition assay, the complex is incubated with potential inhibitors and the PARylation reaction is initiated by the addition of NAD^+. […]

“And” between values parts separate entries of the source, which are not always exact repeats. Equal values may be shown once. Some results are limits rather than exact numbers.

T1 sequence (P09874 whole entry): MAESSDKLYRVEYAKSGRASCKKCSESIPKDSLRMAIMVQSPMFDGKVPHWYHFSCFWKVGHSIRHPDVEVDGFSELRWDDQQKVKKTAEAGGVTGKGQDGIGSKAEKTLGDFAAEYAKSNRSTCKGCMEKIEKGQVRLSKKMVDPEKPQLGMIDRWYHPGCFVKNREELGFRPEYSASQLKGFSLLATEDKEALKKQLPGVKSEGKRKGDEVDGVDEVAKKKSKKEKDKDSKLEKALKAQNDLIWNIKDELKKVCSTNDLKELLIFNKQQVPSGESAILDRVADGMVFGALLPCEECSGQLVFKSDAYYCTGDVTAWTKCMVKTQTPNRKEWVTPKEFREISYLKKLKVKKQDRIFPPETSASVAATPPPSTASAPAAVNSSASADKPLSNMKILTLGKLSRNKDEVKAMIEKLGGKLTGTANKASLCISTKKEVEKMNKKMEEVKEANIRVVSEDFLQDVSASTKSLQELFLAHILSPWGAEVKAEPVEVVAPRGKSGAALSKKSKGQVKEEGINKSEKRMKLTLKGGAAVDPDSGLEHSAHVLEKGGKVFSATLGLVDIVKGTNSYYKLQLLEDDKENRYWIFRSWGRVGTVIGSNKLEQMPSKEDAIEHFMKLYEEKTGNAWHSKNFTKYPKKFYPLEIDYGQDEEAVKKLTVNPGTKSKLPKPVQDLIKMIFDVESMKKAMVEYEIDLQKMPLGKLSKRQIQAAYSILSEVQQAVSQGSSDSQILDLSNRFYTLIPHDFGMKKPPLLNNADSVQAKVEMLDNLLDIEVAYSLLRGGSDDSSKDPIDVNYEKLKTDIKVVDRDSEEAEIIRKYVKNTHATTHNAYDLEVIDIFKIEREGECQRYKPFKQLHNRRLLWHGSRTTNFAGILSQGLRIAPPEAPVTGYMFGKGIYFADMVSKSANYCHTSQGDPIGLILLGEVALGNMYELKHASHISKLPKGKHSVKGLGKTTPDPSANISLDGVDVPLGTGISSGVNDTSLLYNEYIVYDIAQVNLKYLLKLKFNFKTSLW
T1 sequence (Q9NWY4 whole entry): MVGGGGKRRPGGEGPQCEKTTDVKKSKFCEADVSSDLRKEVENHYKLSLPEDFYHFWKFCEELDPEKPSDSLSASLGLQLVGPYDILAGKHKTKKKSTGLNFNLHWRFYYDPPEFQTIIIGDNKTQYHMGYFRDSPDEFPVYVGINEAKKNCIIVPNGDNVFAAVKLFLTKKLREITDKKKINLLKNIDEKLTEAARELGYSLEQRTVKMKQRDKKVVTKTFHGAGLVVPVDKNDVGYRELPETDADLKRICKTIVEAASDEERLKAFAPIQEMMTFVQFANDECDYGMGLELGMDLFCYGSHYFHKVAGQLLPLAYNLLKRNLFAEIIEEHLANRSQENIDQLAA

Regarding `O=C(c1cc(Cc2n[nH]c(=O)c3ccccc23)ccc1F)N1CCN(C(=O)C2CC2)CC1` [olaparib, reference compound], the IC50 is 85 µM with SUM149PT tumor organoids and greater than 50 µM with cancer cells. `N#Cc1c(NC(=O)C#Cc2ccccc2)sc2c1CCC2` [compound 145] showed an IC50 against PARP1–HPF1 complex [1] of 36.8 µM. Moreover, in data set [2], the “inhibition of PARylation” value is reported as “dose-dependent inhibition of PARylation” and the “amount of PAR in the nucleus” value is on record as “decreased the amount of PAR in the nucleus at the higher dose tested”. Turning to `O=C(COc1ccccc1)c1cn(CC(=O)N2CCOCC2)c2ccccc12` [compound 4], the 50% inhibitory concentration (IC50) against PARP1–HPF1 complex [1] is ~1 µM and 1.07 µM. Also, in data set [2], the “inhibition of PARylation” value was “dose-dependent inhibition of PARylation” and the “amount of PAR in the nucleus” value is “reduced PAR at all doses”. Besides, the IC50 in the data set on SUM149PT tumor organoids is 251 µM. Take `CCNCC#CCOc1ccc(Br)cc1` [compound 60]: on PARP1–HPF1 complex [1], it took 7.77 µM to reach half-maximal inhibition (IC50).

For `CCNC/C=C/COc1ccccc1OCC` [compound 116], on PARP1–HPF1 complex [1], the IC50 came out at 22.6 µM. `CNCC#CCOc1ccc(Cl)c(C)c1` [compound 110] showed an IC50 at PARP1–HPF1 complex [1] of 20.4 µM. In turn, `CCNCC#CCOc1cccc(C(F)(F)F)c1` [compound 89] had an IC50 against PARP1–HPF1 complex [1] of 13.8 µM. As for `COc1cccc(-c2nc(CC(=O)Nc3ccc(C)c(C)c3)no2)c1` [compound 88], the IC50 against PARP1–HPF1 complex [1] stood at 13.5 µM. Further, in data set [2], the “inhibition of PARylation” value was “dose-dependent inhibition of PARylation” and the “amount of PAR in the nucleus” value is “decreased the amount of PAR in the nucleus at the higher dose tested”. The compound `N#Cc1sc2nc(-c3ccc(F)cc3F)ccc2c1N` [compound 151] gave an IC50 against PARP1–HPF1 complex [1] of 40.7 µM. The compound `NC(=O)c1ccccc1` [benzamide, reference compound] returned a half-inhibitory concentration (IC50) against PARP1–HPF1 complex [3] of 14 µM.

What is called IC50 is the point on the concentration scale where inhibition reaches its midpoint.
